# Source: patent US11578300B2, “Test apparatus” (Hitachi High-Tech Corporation, priority 2014, dated 2023)
# How the values were obtained:
# Type in all cases: cell-based
# E coli (ATCC35218) = assay: susceptibility test of E coli treated with cefazolin by microscopic observation (bacteriological test apparatus); settings: for growth of the E coli in images / bacterial number in a microscopic image: after three hours; for bacterial number in a microscopic image: FIG. 22A; for average value of the areas per one bacterium: FIG. 22C
# Experimental: After the bacterial suspension is introduced into the culture plate 18, the bacterial suspension is in a state of being mixed with the culture liquid which is included in each of the wells, and the temperature controller 16 is set to a temperature of approximately 35° C. Culture is performed by performing incubation such that the temperature of each of the wells in the culture plate 18 is in the vicinity of the set temperature. Then, while performing the incubation, the bacteria included in each of the wells are monitored through the microscopic observation optical system. The microscopic observation (monitoring) may be performed for a set period of time from the start of the incubation till the end thereof by continuously monitoring the state of bacterial growth. Otherwise, a suitable time may be set and monitoring is performed every set time thereof so as to be able to be compared with the monitored result at the time of starting the incubation. In addition, similar to the bacteriological test apparatus in the related art, the turbidity of each of the wells may be measured through the turbidity measurement optical system while incubating the culture plate 18. The measured result may be compared with the monitored result of the microscopic observation optical system. FIGS. 20A-20D and 21A-21D are diagrams illustrating results of a susceptibility test of E coli (ATCC35218) treated with cefazolin performed by using the bacteriological test apparatus of the present invention. FIGS. 20A to 20D are microscopic images which are obtained by culturing the E. coli in Mueller-Hinton culture mediums respectively containing cefazolin having concentrations of 0 μg/mL, 0.5 μg/mL, 1 μg/mL, and 2 μg/mL, and captured after three hours from the start of culture. The target objects vaguely appearing in the images are the bacteria. FIGS. 21A to 21D are images obtained by respectively performing image processing onto the images of FIGS. […], performing edge detection, and performing binarization thereafter. The target objects appearing black in FIGS. 21A-21D are the E. coli. […] FIGS. 22A-22F are graphs obtained by extracting the feature values of the bacteria from the image of FIGS. 20A-20D. FIG. 22A is a graph illustrating the bacterial number in a microscopic image. […] FIG. 22B is a graph illustrating the areas of the bacteria in the microscopic image. FIG. 22C is a graph illustrating the average values of the areas per one bacterium obtained based on FIGS. 22A and 22B. […] As it also could be confirmed in FIGS. 21A-21D, the facts thereof indicate that the bacteria are elongated due to effect of cefazolin. FIGS. 22D to 22F are graphs respectively showing the perimeter length, the circularity, and the solidity (an index showing how the shape is close to a circle) per one bacterium. As the results of the elongated bacteria, it could be confirmed that the perimeter length increased in FIG. 22D, the circularity defined through […] was lowered in FIG. 22E, and the solidity defined through the area/the projection area is lowered in FIG. 22F.
# E. coli (ATCC25922) = assay: susceptibility test with respect to ampicillin by microscopic observation (bacteriological test apparatus)
# Experimental: After the bacterial suspension is introduced into the culture plate 18, the bacterial suspension is in a state of being mixed with the culture liquid which is included in each of the wells, and the temperature controller 16 is set to a temperature of approximately 35° C. Culture is performed by performing incubation such that the temperature of each of the wells in the culture plate 18 is in the vicinity of the set temperature. Then, while performing the incubation, the bacteria included in each of the wells are monitored through the microscopic observation optical system. The microscopic observation (monitoring) may be performed for a set period of time from the start of the incubation till the end thereof by continuously monitoring the state of bacterial growth. Otherwise, a suitable time may be set and monitoring is performed every set time thereof so as to be able to be compared with the monitored result at the time of starting the incubation. In addition, similar to the bacteriological test apparatus in the related art, the turbidity of each of the wells may be measured through the turbidity measurement optical system while incubating the culture plate 18. The measured result may be compared with the monitored result of the microscopic observation optical system. FIGS. 16A to 18C are diagrams illustrating results of a susceptibility test with respect to ampicillin of E. coli (ATCC25922) performed by using the bacteriological test apparatus of the present invention. FIGS. 16A to 18C are images obtained by culturing the E. coli in Mueller-Hinton culture mediums respectively containing ampicillin having the concentrations of 0 μg/mL, 2 μg/mL, and 16 μg/mL, performing image processing of a line extracting filter and the like onto microscopic images respectively captured after (a) 0 hours, (b) 3 hours, and (c) 24 hours from the start of culture, and performing binarization. The target objects appearing black in FIGS. 16A to 18C are the E. coli. […] FIG. 19 is a graph obtained by calculating the areas of the E. coli in the images of FIGS. 16A to 18C and plotting the areas thereof periodically. […] In this manner, it was possible to obtain the MIC with respect to the ampicillin of the used E. coli based on the graph achieved by monitoring the change in the areas of the bacteria in the images. It could be confirmed that the antimicrobial susceptibility test which requires overnight culture in the related art could be carried out in a short time by using the bacteriological test apparatus of the present invention.
# [1] = test system: Enterococcus faecalis (ATCC29212); assay: susceptibility test with respect to levofloxacin by microscopic observation (bacteriological test apparatus); settings: Mueller-Hinton culture medium, from areas of bacteria in images over time, read-out: minimum inhibitory concentration (MIC)
# Experimental: After the bacterial suspension is introduced into the culture plate 18, the bacterial suspension is in a state of being mixed with the culture liquid which is included in each of the wells, and the temperature controller 16 is set to a temperature of approximately 35° C. Culture is performed by performing incubation such that the temperature of each of the wells in the culture plate 18 is in the vicinity of the set temperature. Then, while performing the incubation, the bacteria included in each of the wells are monitored through the microscopic observation optical system. The microscopic observation (monitoring) may be performed for a set period of time from the start of the incubation till the end thereof by continuously monitoring the state of bacterial growth. Otherwise, a suitable time may be set and monitoring is performed every set time thereof so as to be able to be compared with the monitored result at the time of starting the incubation. In addition, similar to the bacteriological test apparatus in the related art, the turbidity of each of the wells may be measured through the turbidity measurement optical system while incubating the culture plate 18. The measured result may be compared with the monitored result of the microscopic observation optical system. FIGS. 10A to 13D are diagrams illustrating the results obtained by applying the present invention. […]
smiles,measurement,setting,value
Cc1nnc(SCC2=C(C(=O)O)N3C(=O)[C@@H](NC(=O)Cn4cnnn4)[C@H]3SC2)s1 [cefazolin],growth of the E coli in images,"E coli (ATCC35218); cefazolin 0.5 μg/mL, FIG. 21B",grew after three hours
same,bacterial number in a microscopic image,E coli (ATCC35218); cefazolin 0.5 μg/mL,increased through growth
same,average value of the areas per one bacterium,"E coli (ATCC35218); cefazolin 0.5 μg/mL, compared to no antibacterial agent",the area increased
same,average value of the areas per one bacterium,E coli (ATCC35218); cefazolin 1 μg/mL,further increased
same,growth of the E coli in images,"E coli (ATCC35218); cefazolin 1 μg/mL, FIG. 21C",did not quite grow after three hours and was elongated
same,bacterial number in a microscopic image,E coli (ATCC35218); cefazolin 1 μg/mL,did not quite grow
same,average value of the areas per one bacterium,E coli (ATCC35218); cefazolin 2 μg/mL,further increased
same,growth of the E coli in images,"E coli (ATCC35218); cefazolin 2 μg/mL, FIG. 21D",did not quite grow after three hours and was elongated
same,bacterial number in a microscopic image,E coli (ATCC35218); cefazolin 2 μg/mL,did not quite grow
same,perimeter length per one bacterium,"E coli (ATCC35218); elongated bacteria, concentration not given, FIG. 22D",increased
same,circularity per one bacterium,"E coli (ATCC35218); elongated bacteria, concentration not given, FIG. 22E",lowered
same,solidity per one bacterium,"E coli (ATCC35218); elongated bacteria, concentration not given, FIG. 22F",lowered
CC1(C)S[C@@H]2[C@H](NC(=O)[C@H](N)c3ccccc3)C(=O)N2[C@H]1C(=O)O [ampicillin],areas of the E. coli in the images,"E. coli (ATCC25922); ampicillin 2 μg/mL, FIG. 19 graph (ii)",increased with the lapse of time
same,growth of the E. coli in images,"E. coli (ATCC25922); ampicillin 2 μg/mL, after 24 hours, FIG. 17C",grew after 24 hours
same,shape of the E. coli in images,"E. coli (ATCC25922); ampicillin 2 μg/mL, after three hours, FIG. 17B",elongated states
same,areas of the E. coli in the images,"E. coli (ATCC25922); ampicillin 16 μg/mL, FIG. 19 graph (iii)",seldom increased
same,growth of the E. coli in images,"E. coli (ATCC25922); ampicillin 16 μg/mL, FIGS. 18A-18C",did not grow without being elongated
C[C@H]1COc2c(N3CCN(C)CC3)c(F)cc3c(=O)c(C(=O)O)cn1c23 [levofloxacin],MIC,[1],1 µg/mL
